Experimental data published in patent US12344610B2, “APOL1 inhibitors and methods of use” (Maze Therapeutics, Inc., priority 2022, dated 2025).
pEC50: −log10 of the molar value.

Legend:
Format in all cases: cell-based
[1] = test system: Trypanosoma brucei Lister 427 VSG221 with APOL1 G2 recombinant protein; assay: APOL1 G2 trypanosome cell rescue assay (Example B5); details: Trypanosoma brucei, 20 h, read-out: APOL1 G2 Trypanosome Rescue EC50, Trypanosoma brucei Lister 427 VSG221 with APOL1 G2 recombinant protein, 20 hours, CellTiter-Glo; geometric mean of at least 2 assay runs; † = single assay run
Method in brief: (§1)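 Viability read by CellTiter-Glo luminescence after 20 h co-incubation (37° C, 5% CO2) of 250 trypanosomes/well in modified HMI-9 with test compound (duplicate 11-point, 2-fold dilutions, 0.4% DMSO) and APOL1 protein, […]. Protein: mature residues 28-398, E. coli inclusion-body refolded, tag cleaved, in DDM.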

[2] = test system: HEK293 clonal cell line overexpressing APOL1 G1; assay: APOL1 G1 HEK293 cell rescue assay (Example B3); details: Homo sapiens, HEK293, HEK293 clonal line overexpressing APOL1 G1; geometric mean of at least 2 runs; † = single run; ¥ = concentration at 50% rescue estimated (no sigmoidal curve)
Method in brief: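 Rescue of cell death caused by APOL1 G1 overexpression was measured in a clonal HEK293 line. Compounds were tested in duplicate on one plate, and EC50s were geometric means across at least two runs on different days. Some values are estimated 50%-rescue concentrations where curve fitting failed.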

[3] = test system: Trypanosoma brucei Lister 427 VSG221 with APOL1 G1 recombinant protein; assay: APOL1 G1 trypanosome cell rescue assay (Example B5); details: Trypanosoma brucei, 20 h, read-out: APOL1 G1 Trypanosome Rescue EC50, Trypanosoma brucei Lister 427 VSG221 with APOL1 G1 recombinant protein, 20 hours, CellTiter-Glo; geometric mean of at least 2 assay runs; † = single assay run
Method in brief: as §1

Row | SMILES | pEC50 [1] | pEC50 [2] | pEC50 [3]
1 | Cc1cc(OCCN2CCC3(CC2)C(=O)Nc2ccc(Cl)cc23)cnc1S(C)(=O)=O [Compound 161, 5-chloro-1′-{2-[(6-methanesulfonyl-5-methylpyridin-3-yl)oxy]ethyl}-1,2-dihydrospiro[indole-3,4′-piperidin]-2-one] | 7.48 | 6.87 | 6.97
2 | O=C1CCc2cc(OCCN3CCC4(CC3)C(=O)Nc3ccc(Cl)cc34)ccc2N1CCO [Compound 162, 5-chloro-1′-(2-{[1-(2-hydroxyethyl)-2-oxo-1,2,3,4-tetrahydroquinolin-6-yl]oxy}ethyl)-1,2-dihydrospiro[indole-3,4′-piperidin]-2-one] | 7.29 | 6.76 | 6.85
3 | CS(=O)(=O)c1ccc(OCCN2CCC3(CC2)C(=O)Nc2ccc(Cl)cc23)cc1OC(F)F [Compound 163, 5-chloro-1′-{2-[3-(difluoromethoxy)-4-methanesulfonylphenoxy]ethyl}-1,2-dihydrospiro[indole-3,4′-piperidin]-2-one] | 7.67 | 6.95 | 7.05
4 | CS(=O)(=O)c1ccc(OCCN2CCC3(CC2)C(=O)Nc2ccc(C#N)cc23)cc1OC(F)F [Compound 164, 1′-{2-[3-(difluoromethoxy)-4-methanesulfonylphenoxy]ethyl}-2-oxo-1,2-dihydrospiro[indole-3,4′-piperidine]-5-carbonitrile] | 7.06 | 6.50 | 6.46
5 | CS(=O)(=O)C1(c2ccc(OCCN3CCC4(CC3)C(=O)Nc3ccc(Cl)cc34)cc2C(F)(F)F)COC1 [Compound 165, 5-chloro-1′-{2-[4-(3-methanesulfonyloxetan-3-yl)-3-(trifluoromethyl)phenoxy]ethyl}-1,2-dihydrospiro[indole-3,4′-piperidin]-2-one] | 7.95 | 7.23 | 7.47
6 | CS(=O)(=O)C1(c2ccc(OCCN3CCC4(CC3)C(=O)Nc3ccc(C#N)cc34)cc2C(F)(F)F)COC1 [Compound 166, 1′-{2-[4-(3-methanesulfonyloxetan-3-yl)-3-(trifluoromethyl)phenoxy]ethyl}-2-oxo-1,2-dihydrospiro[indole-3,4′-piperidine]-5-carbonitrile] | 7.47 | 6.79 | 6.95
7 | O=C1Nc2ccc(Cl)cc2C12CCN(CCOc1ccc3c(c1)CCNS3(=O)=O)CC2 [Compound 167, 6-(2-{5-chloro-2-oxo-1,2-dihydrospiro[indole-3,4′-piperidin]-1′-yl}ethoxy)-3,4-dihydro-2H-1λ^6,2-benzothiazine-1,1-dione] | 7.46 | 6.86 | 6.83
8 | N#Cc1ccc2c(c1)C1(CCN(CCOc3ccc4c(c3)CCNS4(=O)=O)CC1)C(=O)N2 [Compound 168, 1′-{2-[(1,1-dioxo-3,4-dihydro-2H-1λ^6,2-benzothiazin-6-yl)oxy]ethyl}-2-oxo-1,2-dihydrospiro[indole-3,4′-piperidine]-5-carbonitrile] | 6.72 | < 5.11 | 6.20
9 | CN1C(=O)Cc2cc(OCCN3CCC4(CC3)C(=O)Nc3ccc(C#N)cc34)cc(F)c21 [Compound 169, 1′-{2-[(7-fluoro-1-methyl-2-oxo-2,3-dihydro-1H-indol-5-yl)oxy]ethyl}-2-oxo-1,2-dihydrospiro[indole-3,4′-piperidine]-5-carbonitrile] | 6.53 | 5.99 | 6.04
10 | CC1(Oc2ncc(OCCN3CCC4(CC3)C(=O)Nc3ccc(Cl)cc34)cn2)COC1 [Compound 172, 5-chloro-1′-[2-({2-[(3-methyloxetan-3-yl)oxy]pyrimidin-5-yl}oxy)ethyl]-1,2-dihydrospiro[indole-3,4′-piperidin]-2-one] | 6.97 | 6.73 | 6.45
11 | CCS(=O)(=O)C1(c2ccc(OCCN3CCC4(CC3)C(=O)Nc3ccc(C#N)cc34)cc2)COC1 [Compound 174, 1′-(2-{4-[3-(ethanesulfonyl)oxetan-3-yl]phenoxy}ethyl)-2-oxo-1,2-dihydrospiro[indole-3,4′-piperidine]-5-carbonitrile] | 6.86 | 6.60 | 6.32
12 | CS(=O)(=O)C1(c2ccc(OCCN3CCC4(CC3)C(=O)Nc3ccc(Cl)cc34)cc2)CCC1 [Compound 180, 5-chloro-1′-{2-[4-(1-methanesulfonylcyclobutyl)phenoxy]ethyl}-1,2-dihydrospiro[indole-3,4′-piperidin]-2-one] | 7.88 | 7.13 | 7.32
13 | CS(=O)(=O)C1(c2ccc(OCCN3CCC4(CC3)C(=O)Nc3ccc(C#N)cc34)cc2)CCC1 [Compound 181, 1′-{2-[4-(1-methanesulfonylcyclobutyl)phenoxy]ethyl}-2-oxo-1,2-dihydrospiro[indole-3,4′-piperidine]-5-carbonitrile] | 7.15 | 6.71 | 6.63
14 | CS(=O)(=O)C1(c2ccc(OCCN3CCC4(CC3)C(=O)Nc3ccc(Cl)cc34)cc2)CC2(COC2)C1 [Compound 182, 5-chloro-1′-[2-(4-{6-methanesulfonyl-2-oxaspiro[3.3]heptan-6-yl}phenoxy)ethyl]-1,2-dihydrospiro[indole-3,4′-piperidin]-2-one] | 6.86 | 6.65 | 6.32
15 | CS(=O)(=O)C1(c2ccc(OCCN3CCC4(CC3)C(=O)N(CC(F)(F)F)c3ccc(C#N)cc34)cc2)COC1 [Compound 184, 1′-{2-[4-(3-methanesulfonyloxetan-3-yl)phenoxy]ethyl}-2-oxo-1-(2,2,2-trifluoroethyl)-1,2-dihydrospiro[indole-3,4′-piperidine]-5-carbonitrile] | 6.23 | ~5.60 | 5.68
16 | CS(=O)(=O)C1(c2ccc(OCCN3CCC4(CC3)C(=O)N(CC(F)(F)F)c3ccc(Cl)cc34)cc2)COC1 [Compound 185, 5-chloro-1′-{2-[4-(3-methanesulfonyloxetan-3-yl)phenoxy]ethyl}-1-(2,2,2-trifluoroethyl)-1,2-dihydrospiro[indole-3,4′-piperidin]-2-one] | 6.85 | 6.64 | 6.32
17 | CS(=O)(=O)C1(c2ccc(OCCN3CCC4(CC3)C(=O)Nc3ccc(Cl)cc34)cc2)CCOCC1 [Compound 188, 5-chloro-1′-{2-[4-(4-methanesulfonyloxan-4-yl)phenoxy]ethyl}-1,2-dihydrospiro[indole-3,4′-piperidin]-2-one] | 7.57 | 6.91 | 7.02
18 | CN1C(=O)C2(CCN(CCOc3cc(F)c(C4(S(C)(=O)=O)COC4)c(F)c3)CC2)c2cc(C#N)ccc21 [Compound 189, 1′-{2-[3,5-difluoro-4-(3-methanesulfonyloxetan-3-yl)phenoxy]ethyl}-1-methyl-2-oxo-1,2-dihydrospiro[indole-3,4′-piperidine]-5-carbonitrile] | 7.21 | 6.83 | 6.61
19 | CC(C)(c1ccc(OCCN2CCC3(CC2)C(=O)Nc2ccc(C#N)cc23)cn1)S(C)(=O)=O [Compound 191, 1′-(2-{[6-(2-methanesulfonylpropan-2-yl)pyridin-3-yl]oxy}ethyl)-2-oxo-1,2-dihydrospiro[indole-3,4′-piperidine]-5-carbonitrile] | 6.98 | 6.55 | 6.52
